Assay results taken from patent US20230233569A1 (Revolution Medicines, Inc., priority 2020, published 2023).

Key:
[1] = test system: Capan-1 (K-Ras G12V); experiment: CellTiter-Glo cell viability assay, 5-day treatment; format: cell-based; settings: Homo sapiens, CAPAN-1, 120 h, 5-day treatment; read-out: Capan-1 Cell Viability assay data (K-Ras G12V, IC50)
How it was run: (§1)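 Compounds were dispensed directly onto seeded cells and incubated for 5 days, then plates were equilibrated to room temperature for about 30 minutes before luminescence reading. Signals were expressed as percent of the mean DMSO control and fitted with a four-parameter logistic curve.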

[2] = test system: NCI-H358 (K-Ras G12C); experiment: as above; format: cell-based; settings: Homo sapiens, NCI-H358, 120 h, 5-day treatment; read-out: H358 Cell Viability assay data (K-Ras G12C, IC50)
How it was run: as §1

[3] = molecular target: KRAS G12C (Homo sapiens, UniProt P01116+P62937, G12C); experiment: Disruption of BRAF RBD interaction with Ras (FRET / MOA assay, with Cyclophilin A); format: biochemical; settings: read-out: KRAS G12C FRET data, IC50
Chain of KRAS G12C (P01116 1-169 isoform P01116-2 G12C): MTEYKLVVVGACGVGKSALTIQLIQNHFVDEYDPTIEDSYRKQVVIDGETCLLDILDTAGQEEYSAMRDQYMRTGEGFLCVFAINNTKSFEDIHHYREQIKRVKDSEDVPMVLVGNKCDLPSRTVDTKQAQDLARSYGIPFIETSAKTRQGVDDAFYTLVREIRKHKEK
Chain of KRAS G12C (P62937 whole entry): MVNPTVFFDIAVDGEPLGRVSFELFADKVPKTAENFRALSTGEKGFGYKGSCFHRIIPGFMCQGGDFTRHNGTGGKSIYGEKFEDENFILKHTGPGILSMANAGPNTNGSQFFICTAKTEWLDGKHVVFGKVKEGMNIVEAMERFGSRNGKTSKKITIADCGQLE
How it was run: (§2)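 TR-FRET: nucleotide-loaded K-Ras mutant or WT with Cyclophilin A and BRAF RBD, compound 10-point 3-fold from 30 μM final, 3 h at 25° C, then anti-His Eu (10 nM) and anti-GST APC (50 nM) for 1.5 h. Decreased FRET ratio versus DMSO gives IC50.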

[4] = molecular target: KRAS G12D (Homo sapiens, UniProt P01116+P62937, G12D); experiment: as above; format: biochemical; settings: read-out: KRAS G12D FRET data, IC50
Chain of KRAS G12D (P01116 1-169 isoform P01116-2 G12D limits assumed): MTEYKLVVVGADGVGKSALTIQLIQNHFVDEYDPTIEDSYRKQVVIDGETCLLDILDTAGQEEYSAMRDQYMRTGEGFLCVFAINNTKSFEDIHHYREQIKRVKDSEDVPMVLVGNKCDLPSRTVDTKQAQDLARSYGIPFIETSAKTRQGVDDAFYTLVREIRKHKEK
Chain of KRAS G12D (P62937 whole entry): as the sequence (P62937 whole entry) above
How it was run: as §2

[5] = molecular target: KRAS G12S (Homo sapiens, UniProt P01116+P62937, G12S); experiment: as above; format: biochemical; settings: read-out: KRAS G12S FRET data, IC50
Chain of KRAS G12S (P01116 1-169 isoform P01116-2 G12S limits assumed): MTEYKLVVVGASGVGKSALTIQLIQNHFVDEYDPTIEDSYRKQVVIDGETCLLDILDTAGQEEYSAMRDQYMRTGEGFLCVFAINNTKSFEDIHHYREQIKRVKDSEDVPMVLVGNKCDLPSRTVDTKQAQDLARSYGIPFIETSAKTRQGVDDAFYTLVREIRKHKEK
Chain of KRAS G12S (P62937 whole entry): as the sequence (P62937 whole entry) above
How it was run: as §2

[6] = molecular target: KRAS G12V (Homo sapiens, UniProt P01116+P62937, G12V); experiment: as above; format: biochemical; settings: KRAS G12V; read-out: KRAS G12V FRET data IC50
Chain of KRAS G12V (P01116 1-169 isoform P01116-2 G12V limits assumed): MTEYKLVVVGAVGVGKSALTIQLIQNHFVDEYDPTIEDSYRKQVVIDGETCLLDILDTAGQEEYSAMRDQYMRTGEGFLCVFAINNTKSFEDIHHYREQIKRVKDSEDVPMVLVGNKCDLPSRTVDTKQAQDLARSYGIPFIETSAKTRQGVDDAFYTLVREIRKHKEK
Chain of KRAS G12V (P62937 whole entry): as the sequence (P62937 whole entry) above
How it was run: as §2

[7] = molecular target: KRAS G13C (Homo sapiens, UniProt P01116+P62937, G13C); experiment: as above; format: biochemical; settings: read-out: KRAS G13C FRET data, IC50
Chain of KRAS G13C (P01116 1-169 isoform P01116-2 G13C): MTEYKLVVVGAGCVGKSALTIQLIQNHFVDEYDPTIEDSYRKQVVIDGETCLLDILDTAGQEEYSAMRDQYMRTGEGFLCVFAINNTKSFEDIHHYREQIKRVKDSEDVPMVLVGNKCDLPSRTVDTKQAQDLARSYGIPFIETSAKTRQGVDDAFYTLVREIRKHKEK
Chain of KRAS G13C (P62937 whole entry): as the sequence (P62937 whole entry) above
How it was run: as §2

[8] = molecular target: KRAS G13D (Homo sapiens, UniProt P01116+P62937, G13D); experiment: as above; format: biochemical; settings: KRAS G13D; read-out: KRAS G13D FRET data IC50
Chain of KRAS G13D (P01116 1-169 isoform P01116-2 G13D limits assumed): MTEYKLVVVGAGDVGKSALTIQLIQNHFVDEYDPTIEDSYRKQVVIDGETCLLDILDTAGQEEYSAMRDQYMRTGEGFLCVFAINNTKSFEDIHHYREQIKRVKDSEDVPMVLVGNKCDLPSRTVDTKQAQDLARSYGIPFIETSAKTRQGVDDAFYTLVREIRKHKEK
Chain of KRAS G13D (P62937 whole entry): as the sequence (P62937 whole entry) above
How it was run: as §2

[9] = molecular target: KRAS WT (Homo sapiens, UniProt P01116+P62937); experiment: as above; format: biochemical; settings: KRAS WT; read-out: KRAS WT FRET data IC50
Chain of KRAS WT (P01116 1-169 isoform P01116-2 limits assumed): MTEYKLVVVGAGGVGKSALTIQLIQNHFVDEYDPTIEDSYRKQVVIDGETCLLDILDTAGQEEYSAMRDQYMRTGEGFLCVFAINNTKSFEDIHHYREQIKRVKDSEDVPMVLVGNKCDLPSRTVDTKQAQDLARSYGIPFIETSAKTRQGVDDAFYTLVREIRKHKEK
Chain of KRAS WT (P62937 whole entry): as the sequence (P62937 whole entry) above
How it was run: as §2

[10] = molecular target: NRAS G12C (Homo sapiens, UniProt P01111+P62937, G12C); experiment: as above; format: biochemical; settings: NRAS G12C; read-out: NRAS G12C FRET data IC50
Chain of NRAS G12C (P01111 whole entry G12C): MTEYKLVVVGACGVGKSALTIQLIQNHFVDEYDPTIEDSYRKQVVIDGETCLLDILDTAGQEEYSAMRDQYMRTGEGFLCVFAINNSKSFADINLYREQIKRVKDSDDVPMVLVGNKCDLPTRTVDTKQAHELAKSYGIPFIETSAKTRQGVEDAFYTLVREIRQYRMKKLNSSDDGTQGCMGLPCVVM
Chain of NRAS G12C (P62937 whole entry): as the sequence (P62937 whole entry) above

[11] = molecular target: KRAS Q61H (Homo sapiens, UniProt P01116+P62937, Q61H); experiment: as above; format: biochemical; settings: KRAS Q61H; read-out: KRAS Q61H FRET data IC50
Chain of KRAS Q61H (P01116 1-169 isoform P01116-2 Q61H limits assumed): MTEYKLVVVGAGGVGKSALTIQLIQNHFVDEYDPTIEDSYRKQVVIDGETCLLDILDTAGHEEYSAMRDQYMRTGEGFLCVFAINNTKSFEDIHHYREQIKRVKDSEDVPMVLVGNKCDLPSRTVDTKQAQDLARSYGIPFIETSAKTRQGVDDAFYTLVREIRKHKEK
Chain of KRAS Q61H (P62937 whole entry): as the sequence (P62937 whole entry) above
How it was run: (§3)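 IC50 reflects compound-driven Ras:Cyclophilin A ternary complex displacing BRAF RBD, read as lowered TR-FRET ratio relative to DMSO after Eu anti-His (10 nM) and APC anti-GST (50 nM) detection for 1.5 h. Prior incubation 3 h, 25° C, with 12.5 nM GMPPNP-loaded Ras, 50 nM BRAF RBD, 25 μM Cyclophilin A; top compound 30 μM.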

[12] = molecular target: NRAS Q61K (Homo sapiens, UniProt P01111+P62937, Q61K); experiment: as above; format: biochemical; settings: NRAS Q61K; read-out: NRAS Q61K FRET data IC50
Chain of NRAS Q61K (P01111 whole entry Q61K): as the sequence (P01111 whole entry G12C) above, with C12G, Q61K counted along it
Chain of NRAS Q61K (P62937 whole entry): as the sequence (P62937 whole entry) above
How it was run: as §3

[13] = molecular target: NRAS Q61R (Homo sapiens, UniProt P01111+P62937, Q61R); experiment: as above; format: biochemical; settings: NRAS Q61R; read-out: NRAS Q61R FRET data IC50
Chain of NRAS Q61R (P01111 whole entry Q61R): as the sequence (P01111 whole entry G12C) above, with C12G, Q61R counted along it
Chain of NRAS Q61R (P62937 whole entry): as the sequence (P62937 whole entry) above
How it was run: as §3

[14] = molecular target: NRAS WT (Homo sapiens, UniProt P01111+P62937); experiment: as above; format: biochemical; settings: NRAS WT; read-out: NRAS WT FRET data IC50
Chain of NRAS WT (P01111 whole entry): as the sequence (P01111 whole entry G12C) above, with C12G counted along it
Chain of NRAS WT (P62937 whole entry): as the sequence (P62937 whole entry) above
How it was run: as §3

SMILES	IC50 [1] [nM]	IC50 [2] [nM]	IC50 [3] [nM]	IC50 [4] [nM]	IC50 [5] [nM]	IC50 [6] [nM]	IC50 [7] [nM]	IC50 [8] [nM]	IC50 [9] [nM]	IC50 [10] [nM]	IC50 [11] [nM]	IC50 [12] [nM]	IC50 [13] [nM]	IC50 [14] [nM]
CCn1c(-c2cccnc2[C@H](C)OC)c2c3cc(ccc31)-c1csc(n1)C[C@H](NC(=O)[C@H](C(C)C)N(C)C(=O)N1CC([C@@H](C)CO)C1)C(=O)N1CCC[C@H](N1)C(=O)OCC(C)(C)C2 (single isomer, unassigned) [Example A487]	10 to 100	< 10	10 to 100	100 to 1000	100 to 1000	10 to 100	100 to 1000	100 to 1000	10 to 100	10 to 100	10 to 100	10 to 100	10 to 100	10 to 100
CCn1c(-c2cccnc2[C@H](C)OC)c2c3cc(ccc31)-c1cc(O)cc(c1)C[C@H](NC(=O)[C@H](C(C)C)N(C)C(=O)[C@H]1C[C@@H]1O)C(=O)N1CCC[C@H](N1)C(=O)OCC(C)(C)C2 (single isomer, unassigned) [Example A346]	100 to 1000	100 to 1000	10 to 100	100 to 1000	100 to 1000	100 to 1000	10 to 100	100 to 1000	10 to 100	10 to 100	10 to 100	100 to 1000	100 to 1000	10 to 100
CCn1c(-c2cccnc2[C@H](C)OC)c2c3cc(cnc31)-c1csc(n1)C[C@H](NC(=O)[C@H](C(C)C)N(C)C(=O)N1CC(OC)C1)C(=O)N1CCC[C@H](N1)C(=O)OCC(C)(C)C2 [Example A612]	100 to 1000	100 to 1000	100 to 1000	1000 to 10000	1000 to 10000	1000 to 10000	1000 to 10000	1000 to 10000	1000 to 10000	100 to 1000	100 to 1000	100 to 1000	1000 to 10000	100 to 1000
CCn1c(-c2cccnc2[C@H](C)OC)c2c3cc(ccc31)-c1csc(n1)C[C@H](NC(=O)[C@H](C(C)C)N(C)C(=O)N1CCC3(CCN(C)CC3)C1)C(=O)N1CCC[C@H](N1)C(=O)OCC(C)(C)C2 (atropisomer, axis not shown) [Example A565]	10 to 100	10 to 100	10 to 100	100 to 1000	10 to 100	100 to 1000	100 to 1000	100 to 1000	10 to 100	10 to 100	10 to 100	10 to 100	10 to 100	10 to 100
CCn1c(-c2cccnc2[C@H](C)OC)c2c3cc(ccc31)-c1csc(n1)C[C@H](NC(=O)[C@H](C(C)C)N(C)C(=O)N1CC[C@]13CCCN(C)C3)C(=O)N1CCC[C@H](N1)C(=O)OCC(C)(C)C2 [Example A442]	1000 to 10000	100 to 1000	1000 to 10000	1000 to 10000	1000 to 10000	1000 to 10000	1000 to 10000	100 to 1000	1000 to 10000	1000 to 10000	100 to 1000	1000 to 10000	1000 to 10000	1000 to 10000
CCn1c(-c2cc(N3CCN(C)CC3)cnc2[C@H](C)OC)c2c3cc(ccc31)-c1csc(n1)C[C@H](NC(=O)[C@H](C(C)C)N(C)C(=O)N1C[C@@H](C)N(C)C[C@H]1C)C(=O)N1CCC[C@H](N1)C(=O)OCC(C)(C)C2 (atropisomer, axis not shown) [Example A476]	< 10	< 10	100 to 1000	100 to 1000	100 to 1000	100 to 1000	100 to 1000	100 to 1000	100 to 1000	10 to 100	100 to 1000	100 to 1000	100 to 1000	100 to 1000
CCn1c(-c2cccnc2[C@H](C)OC)c2c3cc(ccc31)-c1cc(O)cc(c1)C[C@H](NC(=O)[C@H](C(C)C)N(C)C(=O)C1CCc3ccccc3N1)C(=O)N1CCC[C@H](N1)C(=O)OCC(C)(C)C2 (stereo partly drawn) [Example A226]	100 to 1000	100 to 1000	10 to 100	1000 to 10000	100 to 1000	100 to 1000	10 to 100	100 to 1000	100 to 1000	100 to 1000	10 to 100	100 to 1000	100 to 1000	100 to 1000
CCn1c(-c2cccnc2[C@H](C)OC)c2c3cc(ccc31)-c1csc(n1)C[C@H](NC(=O)[C@H](C(C)C)N(C)C(=O)N1CCO[C@@H](C)C1)C(=O)N1CCC[C@H](N1)C(=O)OCC(C)(C)C2 (atropisomer, axis not shown) [Example A309]	10 to 100	< 10	10 to 100	100 to 1000	100 to 1000	100 to 1000	100 to 1000	100 to 1000	100 to 1000	10 to 100	10 to 100	10 to 100	10 to 100	10 to 100
CCn1c(-c2cnccc2COC)c2c3cc(ccc31)-c1cc(O)cc(c1)C[C@H](NC(=O)[C@H](C(C)C)N1COCC1=O)C(=O)N1CCC[C@H](N1)C(=O)OCC(C)(C)C2 [Example A102]	100 to 1000	1000 to 10000	100 to 1000	100 to 1000	100 to 1000	100 to 1000	10 to 100	100 to 1000	100 to 1000	100 to 1000	10 to 100	100 to 1000	100 to 1000	100 to 1000
